# In patent EP0674651B1, “SUBSTITUTED 6-AZAANDROSTENONES” (priority 1992, dated 1994):
# Key:
# [1] = target: T1, human type 1 5α-reductase (Homo sapiens, UniProt P18405); assay: 5α-reductase in vitro inhibitory activity, human type 1
# T1 sequence (P18405 1-259): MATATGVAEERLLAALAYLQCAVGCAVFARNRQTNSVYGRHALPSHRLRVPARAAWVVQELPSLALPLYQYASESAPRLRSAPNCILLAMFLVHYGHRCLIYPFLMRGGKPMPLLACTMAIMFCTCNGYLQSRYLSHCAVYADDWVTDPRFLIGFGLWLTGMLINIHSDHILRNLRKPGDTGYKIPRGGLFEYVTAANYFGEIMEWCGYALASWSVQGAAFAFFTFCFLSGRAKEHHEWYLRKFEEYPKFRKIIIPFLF
# Experimental: (§1) Microsomes were prepared by homogenization of the tissue or cells, followed by differential centrifugation of the homogenate. […] Corresponding incubations were carried out with no test compound as a control study.
# For type 2 IC50 measurements, assay components except testosterone were preincubated for 20 minutes at pH 6.0, and following the addition of 8nM testosterone the assays were allowed to proceed for 20-40 minutes. The percentage of conversion of testosterone to DHT in the presence of test compounds compared to the corresponding conversion in the control study was estimated using high pressure liquid chromatography (HPLC) with radiochemical detection.
# [2] = target: T2, human type 2 5α-reductase (Homo sapiens, UniProt P31213); assay: 5α-reductase in vitro inhibitory activity, human type 2
# T2 sequence (P31213 1-254): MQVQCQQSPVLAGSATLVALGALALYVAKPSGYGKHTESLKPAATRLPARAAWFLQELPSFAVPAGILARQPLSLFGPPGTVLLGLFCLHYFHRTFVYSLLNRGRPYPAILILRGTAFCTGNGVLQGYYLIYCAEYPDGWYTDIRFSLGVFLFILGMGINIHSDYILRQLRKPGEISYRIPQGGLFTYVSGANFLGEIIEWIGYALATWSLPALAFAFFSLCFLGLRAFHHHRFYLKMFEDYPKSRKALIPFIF
# Experimental: as §1
# The percentage of conversion of testosterone to DHT in the presence of test compounds compared to the corresponding conversion in the control study was estimated using high pressure liquid chromatography (HPLC) with radiochemical detection.
SMILES,IC50 [1] [µM],IC50 [2] [µM]
"C[C@]12CC[C@H]3[C@@H](CNC4=CC(=O)CC[C@@]43C)[C@@H]1CC[C@@H]2C(=O)NCCSc1ccccc1 [Compound 23, 17β-N-2-(Phenylthio)ethyl-carbamoyl-6-azaandrost-4-en-3-one]",0.01 to 0.1,< 0.01
"C[C@]12CC[C@H]3[C@@H](CNC4=CC(=O)CC[C@@]43C)[C@@H]1CC[C@@H]2C(=O)NC(c1ccc(F)cc1)c1ccc(F)cc1 [Compound 24, 17β-N-Bis-(4-fluorophenyl)methyl-carbamoyl-6-azaandrost-4-en-3-one]",0.01 to 0.1,–
"C[C@]12CC[C@H]3[C@@H](CNC4=CC(=O)CC[C@@]43C)[C@@H]1CC[C@@H]2C(=O)c1ccc(F)cc1F [Compound 26, 17β-(1-Oxo-1-(2,4-difluorophenyl)methyl)-6-azaandrost-4-en-3-one]",0.01 to 0.1,< 0.01
"C[C@]12CC[C@H]3[C@@H](CNC4=CC(=O)CC[C@@]43C)[C@@H]1CC[C@@H]2C(=O)N1CCC(Cc2ccccc2)CC1 [Compound 37, 17β-N-(4-Benzyl)piperidyl-carbamoyl-6-azaandrost-4-en-3-one]",0.01 to 0.1,< 0.01
"CC(C)(C)N(O)C(=O)[C@H]1CC[C@H]2[C@@H]3CNC4=CC(=O)CC[C@]4(C)[C@H]3CC[C@]12C [Compound 41, 17β-N-Hydroxy-N-t-butyl-carbamoyl-6-azaandrost-4-en-3-one]",0.01 to 0.1,–
"CCc1c(Cl)cc(Cl)c(CC)c1NC(=O)[C@H]1CC[C@H]2[C@@H]3CNC4=CC(=O)CC[C@]4(C)[C@H]3CC[C@]12C [Compound 54, 17β-N-(2,6-Diethyl-3,5-dichloro)phenyl-carbamoyl-6-azaandrost-4-en-3-one]",0.01 to 0.1,< 0.01
"CCc1ccc(Cl)c(CC)c1NC(=O)[C@H]1CC[C@H]2[C@@H]3CNC4=CC(=O)CC[C@]4(C)[C@H]3CC[C@]12C [Compound 55, 17β-N-(2,6-Diethyl-3-chloro)phenyl-carbamoyl-6-azaandrost-4-en-3-one]",0.01 to 0.1,< 0.01
"CC(C)(C)c1ccccc1NC(=O)[C@H]1CC[C@H]2[C@@H]3CNC4=CC(=O)CC[C@]4(C)[C@H]3CC[C@]12C [Compound 56, 17β-N-(2-t-Butyl)phenyl-carbamoyl-6-azaandrost-4-en-3-one]",0.01 to 0.1,< 0.01
"C[C@]12CC[C@H]3[C@@H](CNC4=CC(=O)CC[C@@]43C)[C@@H]1CC[C@@H]2C(=O)Nc1cc(C(F)(F)F)cc(C(F)(F)F)c1 [Compound 57, 17β-N-(3,5-Ditrifluoromethyl)phenyl-carbamoyl-6-azaandrost-4-en-3-one]",0.01 to 0.1,0.01 to 0.1
"C[C@]12CC[C@H]3[C@@H](CNC4=CC(=O)CC[C@@]43C)[C@@H]1CC[C@@H]2C(=O)Nc1c(Cl)cc(Cl)cc1Cl [Compound 58, 17β-N-(2,4,6-Trichloro)phenyl-carbamoyl-6-azaandrost-4-en-3-one]",0.01 to 0.1,< 0.01
"CC1(C)CC(NC(=O)[C@H]2CC[C@H]3[C@@H]4CNC5=CC(=O)CC[C@]5(C)[C@H]4CC[C@]23C)CC(C)(C)C1 [Compound 59, 17β-N-(3,5-Tetramethyl)cyclohexyl-carbamoyl-6-azaandrost-4-en-3-one]",> 0.1,0.01 to 0.1
"CC(C)c1cc(C(C)C)c(C(=O)[C@H]2CC[C@H]3[C@@H]4CNC5=CC(=O)CC[C@]5(C)[C@H]4CC[C@]23C)c(C(C)C)c1 [Compound 60, 17β-(1-Oxo-1-((2,4,6-tri-i-propyl)phenyl)methyl)-6-azaandrost-4-en-3-one]",> 0.1,0.01 to 0.1
"C[C@]12CC[C@H]3[C@@H](CNC4=CC(=O)CC[C@@]43C)[C@@H]1CC[C@@H]2C(=O)Nc1cc(C(F)(F)F)ccc1Br [Compound 61, 17β-N-(2-Bromo-5-trifluoromethyl)phenyl-carbamoyl-6-azaandrost-4-en-3-one]",0.01 to 0.1,< 0.01
"Cc1cccc(C(C)(C)C)c1NC(=O)[C@H]1CC[C@H]2[C@@H]3CNC4=CC(=O)CC[C@]4(C)[C@H]3CC[C@]12C [Compound 62, 17β-N-(2-t-Butyl-6-methyl)phenyl-carbamoyl-6-azaandrost-4-en-3-one]",> 0.1,< 0.01
"CC(C)(NC(=O)[C@H]1CC[C@H]2[C@@H]3CNC4=CC(=O)CC[C@]4(C)[C@H]3CC[C@]12C)c1ccccc1 [Compound 63, 17β-N-(1-Methyl-1-phenyl)ethyl-carbamoyl-6-azaandrost-4-en-3-one]",> 0.1,< 0.01
"C[C@]12CC[C@H]3[C@@H](CNC4=CC(=O)CC[C@@]43C)[C@@H]1CC[C@@H]2C(=O)NC1(c2ccc(Cl)cc2)CCCC1 [Compound 64, 17β-N-1-(4-Chlorophenyl)cyclopentyl-carbamoyl-6-azaandrost-4-en-3-one]",< 0.01,< 0.01

SMILES,IC50 [1] [µM],IC50 [2] [µM]
"CC(C)C(NC(=O)[C@H]1CC[C@H]2[C@@H]3CNC4=CC(=O)CC[C@]4(C)[C@H]3CC[C@]12C)c1ccc(Cl)cc1 (stereo partly drawn) [Compound 65, 17β-N-(1-(4-Chlorophenyl)-2-methyl)propyl-carbamoyl-6-azaandrost-4-en-3-one]",0.01 to 0.1,< 0.01
"CC(NC(=O)[C@H]1CC[C@H]2[C@@H]3CNC4=CC(=O)CC[C@]4(C)[C@H]3CC[C@]12C)(c1ccc(Cl)cc1)c1ccc(Cl)cc1 [Compound 66, 17β-N-(1,1-Di-4-chlorophenyl)ethyl-carbamoyl-6-azaandrost-4-en-3-one]",> 0.1,< 0.01
"CC(C)(C)c1ccc(C(NC(=O)[C@H]2CC[C@H]3[C@@H]4CNC5=CC(=O)CC[C@]5(C)[C@H]4CC[C@]23C)c2ccccc2)cc1 (stereo partly drawn) [Compound 67, 17β-N-(1 -Phenyl-1-(4-t-butyl)phenyl)methyl-carbamoyl-6-azaandrost-4-en-3-one]",> 0.1,< 0.01
"C[C@]12CC[C@H]3[C@@H](CNC4=CC(=O)CC[C@@]43C)[C@@H]1CC[C@@H]2C(=O)C1CC2CCC1C2 (stereo partly drawn) [Compound 68, 17β-(1-Oxo-1-(2-norbornyl)methyl)-6-azaandrost-4-en-3-one]",0.01 to 0.1,< 0.01
"C[C@]12CC[C@H]3[C@@H](CNC4=CC(=O)CC[C@@]43C)[C@@H]1CC[C@@H]2C(=O)Nc1c(Br)cc(Cl)cc1Br [Compound 69, 17β-N-(2,6-Dibromo-4-chloro)phenyl-carbamoyl-6-azaandrost-4-en-3-one]",0.01 to 0.1,< 0.01
"CCc1cc(Br)cc(CC)c1NC(=O)[C@H]1CC[C@H]2[C@@H]3CNC4=CC(=O)CC[C@]4(C)[C@H]3CC[C@]12C [Compound 70, 17β-N-(2,6-Diethyl-4-bromo)phenyl-carbamoyl-6-azaandrost-4-en-3-one]",0.01 to 0.1,< 0.01
"CC(C)(C)c1ccc(NC(=O)[C@H]2CC[C@H]3[C@@H]4CNC5=CC(=O)CC[C@]5(C)[C@H]4CC[C@]23C)c(Br)c1 [Compound 71, 17β-N-(2-Bromo-4-t-butyl)phenyl-carbamoyl-6-azaandrost-4-en-3-one]",0.01 to 0.1,< 0.01
"CC(C)(C)c1ccc(NC(=O)[C@H]2CC[C@H]3[C@@H]4CNC5=CC(=O)CC[C@]5(C)[C@H]4CC[C@]23C)c(Cl)c1 [Compound 72, 17β-N-(2-Chloro-4-t-butyl)phenyl-carbamoyl-6-azaandrost-4-en-3-one]",0.01 to 0.1,< 0.01
"CC(C)(C)c1ccc(C(NC(=O)[C@H]2CC[C@H]3[C@@H]4CNC5=CC(=O)CC[C@]5(C)[C@H]4CC[C@]23C)C(C)(C)C)cc1 (stereo partly drawn) [Compound 73, 17β-N-(1-t-Butyl-1-(4-t-butylphenyl))methyl-carbamoyl-6-azaandrost-4-en-3-one]",< 0.01,< 0.01
"CC(C)(C)c1ccc(Br)cc1NC(=O)[C@H]1CC[C@H]2[C@@H]3CNC4=CC(=O)CC[C@]4(C)[C@H]3CC[C@]12C [Compound 74, 17β-N-(5-Bromo-2-t-butyl)phenyl-carbamoyl-6-azaandrost-4-en-3-one]",< 0.01,< 0.01
"CC(C)(C)c1ccc(Cl)cc1NC(=O)[C@H]1CC[C@H]2[C@@H]3CNC4=CC(=O)CC[C@]4(C)[C@H]3CC[C@]12C [Compound 75, 17β-N-(5-Chloro-2-t-butyl)phenyl-carbamoyl-6-azaandrost-4-en-3-one]",< 0.01,< 0.01
"CCc1cccc(CC)c1NC(=O)[C@H]1CC[C@H]2[C@@H]3CNC4=CC(=O)CC[C@]4(C)[C@H]3CC[C@]12C [Compound 76, 17β-N-(2,6-Diethyl)phenyl-carbamoyl-6-azaandrost-4-en-3-one]",0.01 to 0.1,< 0.01
"CC(C)(C)c1cc(Br)ccc1NC(=O)[C@H]1CC[C@H]2[C@@H]3CNC4=CC(=O)CC[C@]4(C)[C@H]3CC[C@]12C [Compound 77, 17β-N-(4-Bromo-2-t-butyl)phenyl-carbamoyl-6-azaandrost-4-en-3-one]",< 0.01,< 0.01
"CC(C)(C)c1ccc(C#N)cc1NC(=O)[C@H]1CC[C@H]2[C@@H]3CNC4=CC(=O)CC[C@]4(C)[C@H]3CC[C@]12C [Compound 78, 17β-N-(2-t-Butyl-5-cyano)phenyl-carbamoyl-6-azaandrost-4-en-3-one]",0.01 to 0.1,< 0.01
"Cc1ccc(Oc2ccc(C(F)(F)F)cc2NC(=O)[C@H]2CC[C@H]3[C@@H]4CNC5=CC(=O)CC[C@]5(C)[C@H]4CC[C@]23C)cc1 [Compound 79, 17β-N-(2-(O-4-Tolyl)-5-trifluoromethyl)phenyl-carbamoyl-6-azaandrost-4-en-3-one]",0.01 to 0.1,< 0.01
